Results reported in patent US8669271B2 (Boehringer Ingelheim International GmbH, priority 2010, dated 2014).

Target: T1, human GPR119 (Homo sapiens, UniProt Q8TDV5)
T1 construct: expression vector for human GPR119 cDNA (Acc. No. NP_848566); expressed in transfected cells
T1 sequence (Q8TDV5 1-335): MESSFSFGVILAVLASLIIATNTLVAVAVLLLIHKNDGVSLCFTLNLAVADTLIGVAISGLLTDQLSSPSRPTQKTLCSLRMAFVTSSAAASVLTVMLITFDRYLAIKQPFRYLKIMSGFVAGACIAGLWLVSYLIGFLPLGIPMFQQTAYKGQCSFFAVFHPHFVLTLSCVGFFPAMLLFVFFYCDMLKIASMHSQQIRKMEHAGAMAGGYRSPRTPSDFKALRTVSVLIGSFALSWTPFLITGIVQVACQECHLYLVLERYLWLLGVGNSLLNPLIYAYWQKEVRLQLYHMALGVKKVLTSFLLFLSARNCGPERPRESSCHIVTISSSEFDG
Test: AlphaScreen cAMP assay in Min-6/hGPR119 cells (activation of GPR119, intracellular cAMP)
Format: cell-based
Conditions: MIN6 cells stably transfected with human GPR119; cAMP by AlphaScreen after 45 minutes incubation at room temperature
Outline: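 MIN6 cells stably expressing human GPR119, seeded 24 h before treatment; compounds applied 45 min at ~20 °C in Hepes-buffered saline pH 7.4 with 0.5 mM IBMX, 0.1% BSA, 1% DMSO final. Intracellular cAMP measured by AlphaScreen.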

| SMILES | EC50 [nM] |
| --- | --- |
| CC(=O)c1ccc(-c2ccc3c(c2)CC(C2CCN(C(=O)OC(C)C)CC2)O3)cc1 (stereo not drawn) [Example 104] | 200 |
| CC(C)OC(=O)N1CCC(C2Cc3cc(-c4ccc(CC#N)cc4)ccc3O2)CC1 (stereo not drawn) [Example 105] | 99 |
| Cc1noc(C)c1-c1ccc2c(c1)CC(C1CCN(C(=O)OC(C)C)CC1)O2 (stereo not drawn) [Example 106] | 1710 |
| CC(C)OC(=O)N1CCC(C2Cc3cc(-c4cccc(S(C)(=O)=O)c4)ccc3O2)CC1 (stereo not drawn) [Example 107] | 1120 |
| COc1ncc(-c2ccc3c(c2)CC(C2CCN(C(=O)OC(C)C)CC2)O3)cn1 (stereo not drawn) [Example 108] | 1980 |
| CCNC(=O)c1ccc(-c2ccc3c(c2)CC(C2CCN(C(=O)OC(C)C)CC2)O3)cc1 (stereo not drawn) [Example 109] | 28 |
| CC(C)OC(=O)N1CCC(C2Cc3cc(-c4ccc(S(N)(=O)=O)cc4)ccc3O2)CC1 (stereo not drawn) [Example 110] | 52 |
| CC(C)OC(=O)N1CCC(C2Cc3cc(-c4ccc(C#N)c(F)c4)ccc3O2)CC1 (stereo not drawn) [Example 111] | 152 |
| CC(C)OC(=O)N1CCC(C2Cc3cc(-c4cnc(C#N)nc4)ccc3O2)CC1 (stereo not drawn) [Example 112] | 320 |
| CC(C)OC(=O)N1CCC(C2Cc3cc(-c4ccncc4F)ccc3O2)CC1 (stereo not drawn) [Example 113] | 167 |
| COC(=O)c1ccc(-c2ccc3c(c2)CC(C2CCN(C(=O)OC(C)C)CC2)O3)cn1 (stereo not drawn) [Example 114] | 527 |
| CC(C)OC(=O)N1CCC(C2Cc3cc(-c4ccc(S(C)(=O)=O)cc4F)ccc3O2)CC1 (stereo not drawn) [Example 115] | 42 |
| COC(=O)c1cc(-c2ccc3c(c2)CC(C2CCN(C(=O)OC(C)C)CC2)O3)cs1 (stereo not drawn) [Example 116] | 770 |
| CC(C)OC(=O)N1CCC(C2Cc3cc(-c4ccc(C(F)(F)F)nc4)ccc3O2)CC1 (stereo not drawn) [Example 117] | 374 |
| CC(C)OC(=O)N1CCC(C2Cc3cc(-c4ccc(S(C)(=O)=O)c(F)c4)ccc3O2)CC1 (stereo not drawn) [Example 118] | 15 |
| COc1cc(-c2ccc3c(c2)CC(C2CCN(C(=O)OC(C)C)CC2)O3)ccc1C#N (stereo not drawn) [Example 119] | 855 |
| CC(C)OC(=O)N1CCC(C2Cc3cc(-c4ccc5c(cnn5C)c4)ccc3O2)CC1 (stereo not drawn) [Example 120] | 387 |
| CC(C)OC(=O)N1CCC(C2Cc3cc(-c4ccc(NS(C)(=O)=O)cc4)ccc3O2)CC1 (stereo not drawn) [Example 121] | 46 |
| COCCN(C)C(=O)c1ccc(-c2ccc3c(c2)CC(C2CCN(C(=O)OC(C)C)CC2)O3)cc1 (stereo not drawn) [Example 123, 4-(5-{4-[(2-Methoxy-ethyl)-methyl-carbamoyl]-phenyl}-2,3-dihydro-benzofuran-2-yl)-piperidine-1-carboxylic acid isopropyl ester] | 30 |
| COCCN(C)C(=O)Cc1ccc(-c2ccc3c(c2)CC(C2CCN(C(=O)OC(C)C)CC2)O3)cc1 (stereo not drawn) [Example 124] | 70 |
| CC(O)CCNC(=O)c1ccc(-c2ccc3c(c2)CC(C2CCN(C(=O)OC(C)C)CC2)O3)cc1 (stereo not drawn) [Example 125] | 110 |
| CC(O)CCNC(=O)Cc1ccc(-c2ccc3c(c2)CC(C2CCN(C(=O)OC(C)C)CC2)O3)cc1 (stereo not drawn) [Example 126] | 168 |

| SMILES | EC50 [nM] |
| --- | --- |
| COC1CCN(C(=O)c2ccc(-c3ccc4c(c3)CC(C3CCN(C(=O)OC(C)C)CC3)O4)cc2)CC1 (stereo not drawn) [Example 127] | 25 |
| COC1CCN(C(=O)Cc2ccc(-c3ccc4c(c3)CC(C3CCN(C(=O)OC(C)C)CC3)O4)cc2)CC1 (stereo not drawn) [Example 128] | 57 |
| CC(O)CNC(=O)c1ccc(-c2ccc3c(c2)CC(C2CCN(C(=O)OC(C)C)CC2)O3)cc1 (stereo not drawn) [Example 129] | 73 |
| CC(O)CNC(=O)Cc1ccc(-c2ccc3c(c2)CC(C2CCN(C(=O)OC(C)C)CC2)O3)cc1 (stereo not drawn) [Example 130] | 159 |
| CC(C)OC(=O)N1CCC(C2Cc3cc(-c4ccc(C(=O)N5CCC(O)C5)cc4)ccc3O2)CC1 (stereo not drawn) [Example 131] | 95 |
| CC(C)OC(=O)N1CCC(C2Cc3cc(-c4ccc(CC(=O)N5CCC(O)C5)cc4)ccc3O2)CC1 (stereo not drawn) [Example 132] | 154 |
| CC(C)OC(=O)N1CCC(C2Cc3cc(-c4ccc(C(=O)NCC#N)cc4)ccc3O2)CC1 (stereo not drawn) [Example 133] | 104 |
| CC(C)OC(=O)N1CCC(C2Cc3cc(-c4ccc(CC(=O)NCC#N)cc4)ccc3O2)CC1 (stereo not drawn) [Example 134] | 100 |
| CC(C)OC(=O)N1CCC(C2Cc3cc(-c4ccc(C(=O)N5CC(F)(F)C5)cc4)ccc3O2)CC1 (stereo not drawn) [Example 135] | 38 |
| CC(C)OC(=O)N1CCC(C2Cc3cc(-c4ccc(CC(=O)N5CC(F)(F)C5)cc4)ccc3O2)CC1 (stereo not drawn) [Example 136] | 11 |
| CC(C)OC(=O)N1CCC(C2Cc3cc(-c4ccc(C(=O)NCC5COCCO5)cc4)ccc3O2)CC1 (stereo not drawn) [Example 137] | 51 |
| CC(C)OC(=O)N1CCC(C2Cc3cc(-c4ccc(CC(=O)NCC5COCCO5)cc4)ccc3O2)CC1 (stereo not drawn) [Example 138] | 277 |
| CC(C)OC(=O)N1CCC(C2Cc3cc(-c4ccc(C(=O)N(C)C5CCCOC5)cc4)ccc3O2)CC1 (stereo not drawn) [Example 139] | 52 |
| CC(C)OC(=O)N1CCC(C2Cc3cc(-c4ccc(CC(=O)N(C)C5CCCOC5)cc4)ccc3O2)CC1 (stereo not drawn) [Example 140] | 63 |
| CC(C)OC(=O)N1CCC(C2Cc3cc(-c4ccc(C(=O)NCc5cocn5)cc4)ccc3O2)CC1 (stereo not drawn) [Example 141] | 40 |
| CC(C)OC(=O)N1CCC(C2Cc3cc(-c4ccc(CC(=O)NCc5cocn5)cc4)ccc3O2)CC1 (stereo not drawn) [Example 142] | 208 |
| CC(C)OC(=O)N1CCC(C2Cc3cc(-c4ccc(C(=O)N5CCC(C)(O)C5)cc4)ccc3O2)CC1 (stereo not drawn) [Example 143] | 94 |
| CC(C)OC(=O)N1CCC(C2Cc3cc(-c4ccc(CC(=O)N5CCC(C)(O)C5)cc4)ccc3O2)CC1 (stereo not drawn) [Example 144] | 110 |
| COC1CN(C(=O)c2ccc(-c3ccc4c(c3)CC(C3CCN(C(=O)OC(C)C)CC3)O4)cc2)C1 (stereo not drawn) [Example 145] | 38 |
| COC1CN(C(=O)Cc2ccc(-c3ccc4c(c3)CC(C3CCN(C(=O)OC(C)C)CC3)O4)cc2)C1 (stereo not drawn) [Example 146] | 65 |
| CC(C)OC(=O)N1CCC(C2Cc3cc(-c4ccc(C(=O)NCCC(C)(C)O)cc4)ccc3O2)CC1 (stereo not drawn) [Example 147] | 113 |
| CC(C)OC(=O)N1CCC(C2Cc3cc(-c4ccc(CC(=O)NCCC(C)(C)O)cc4)ccc3O2)CC1 (stereo not drawn) [Example 148] | 98 |

| SMILES | EC50 [nM] |
| --- | --- |
| CC(C)OC(=O)N1CCC(C2Cc3cc(-c4ccc(C(=O)N5CCOCC5)cc4)ccc3O2)CC1 (stereo not drawn) [Example 149] | 9 |
| CC(C)OC(=O)N1CCC(C2Cc3cc(-c4ccc(CC(=O)N5CCOCC5)cc4)ccc3O2)CC1 (stereo not drawn) [Example 150] | 62 |
| CC(C)OC(=O)N1CCC(C2Cc3cc(-c4ccc(C(=O)NCC(C)(C)CO)cc4)ccc3O2)CC1 (stereo not drawn) [Example 151] | 47 |
| CC(C)OC(=O)N1CCC(C2Cc3cc(-c4ccc(CC(=O)NCC(C)(C)CO)cc4)ccc3O2)CC1 (stereo not drawn) [Example 152] | 153 |
| CC(C)OC(=O)N1CCC(C2Cc3cc(-c4ccc(C(=O)NCC5CCCO5)cc4)ccc3O2)CC1 (stereo not drawn) [Example 153] | 17 |
| CC(C)OC(=O)N1CCC(C2Cc3cc(-c4ccc(CC(=O)NCC5CCCO5)cc4)ccc3O2)CC1 (stereo not drawn) [Example 154] | 98 |
| CC(C)OC(=O)N1CCC(C2Cc3cc(-c4ccc(C(=O)N(C)CCO)cc4)ccc3O2)CC1 (stereo not drawn) [Example 155] | 82 |
| CC(C)OC(=O)N1CCC(C2Cc3cc(-c4ccc(CC(=O)N(C)CCO)cc4)ccc3O2)CC1 (stereo not drawn) [Example 156] | 132 |
| CC(C)OC(=O)N1CCC(C2Cc3cc(-c4ccc(C(=O)NCc5ccccn5)cc4)ccc3O2)CC1 (stereo not drawn) [Example 157] | 34 |
| CC(C)OC(=O)N1CCC(C2Cc3cc(-c4ccc(CC(=O)NCc5ccccn5)cc4)ccc3O2)CC1 (stereo not drawn) [Example 158] | 235 |
| CC(C)OC(=O)N1CCC(C2Cc3cc(-c4ccc(C(=O)N(C)CC#N)cc4)ccc3O2)CC1 (stereo not drawn) [Example 159] | 25 |
| CC(C)OC(=O)N1CCC(C2Cc3cc(-c4ccc(CC(=O)N(C)CC#N)cc4)ccc3O2)CC1 (stereo not drawn) [Example 160] | 31 |
| CC(=O)Nc1ccc(-c2ccc3c(c2)CC(C2CCN(C(=O)OC(C)C)CC2)O3)cn1 (stereo not drawn) [Example 161, 4-[5-(6-Acetylamino-pyridin-3-yl)-2,3-dihydro-benzofuran-2-yl]-piperidine-1-carboxylic acid isopropyl ester] | 26 |
| CC(=O)Nc1ccc(-c2ccc3c(c2)CC(C2CCN(C(=O)OC(C)C)CC2)O3)nn1 (stereo not drawn) [Example 162, 4-[5-(6-Acetylamino-pyridazin-3-yl)-2,3-dihydro-benzofuran-2-yl]-piperidine-1-carboxylic acid isopropyl ester] | 483 |
| CC(=O)Nc1ccc(-c2ccc3c(c2)CC(C2CCN(C(=O)OC(C)C)CC2)O3)c(C)n1 (stereo not drawn) [Example 163] | 296 |
| CC(=O)Nc1ccc(-c2ccc3c(c2)CC(C2CCN(C(=O)OC(C)C)CC2)O3)cc1 (stereo not drawn) [Example 164] | 89 |
| Cc1c(-c2ccc3c(c2)CC(C2CCN(C(=O)OC(C)C)CC2)O3)cnn1C (stereo not drawn) [Example 165] | 1840 |
| CC(C)OC(=O)N1CCC(C2Cc3cc(-c4cncs4)ccc3O2)CC1 (stereo not drawn) [Example 166] | 190 |
| COc1cnnc(-c2ccc3c(c2)CC(C2CCN(C(=O)OC(C)C)CC2)O3)c1 (stereo not drawn) [Example 167] | 845 |
| CC(C)OC(=O)N1CCC(C2Cc3cc(-c4cnn(C)c4)ccc3O2)CC1 (stereo not drawn) [Example 168] | 1910 |
| CC(=O)Nc1cc(-c2ccc3c(c2)CC(C2CCN(C(=O)OC(C)C)CC2)O3)ccc1C (stereo not drawn) [Example 169] | 3140 |
| CC(C)OC(=O)N1CCC(C2Cc3cc(-c4ccc(C#N)s4)ccc3O2)CC1 (stereo not drawn) [Example 170] | 62 |
